Patent US12329739B2, “Isoflavonoid compounds and methods for the treatment of cancer” (Aardvark Therapeutics, Inc., priority 2010, dated 2025)
Values after ≈ are worked out from the molar mass of the structure shown.

How the values were obtained:
MM200 = assay: MTT proliferation assay, MM200; format: cell-based; conditions: Melanoma, MM200, 120 h of exposure
Description: (§1) Proliferation Assays. IC50 values were determined for each cell line. Cells were seeded in 96-well plates at an appropriate cell density as determined from growth kinetics analysis and cultured for 5 days in the absence and presence of the test compounds. Cell proliferation was assessed after the addition of 20 μl of 3-4,5 dimethylthiazol-2,5-diphenyl tetrazolium bromide (MTT, 5 mg/ml in PBS, Sigma) for 5 hrs at 37° C. according to manufacturer's instructions. IC50 values were calculated from semi-log plots of % of control proliferation on the y-axis against log dose on the x-axis.
(§2) Anti-proliferative Activity of Isoflavonoid Derivatives. IC50 values were determined for each cell line after 120 h of exposure.

CP70 = assay: MTT proliferation assay, CP70; format: cell-based
Description: as §1, §2

MM2200 = assay: MTT proliferation assay, MM2200; format: cell-based; conditions: Table 2, Melanoma, MM2200, 120 hrs of exposure
Description: as §1, §2
Activity data is provided is Table 2.

[1] = Solubility in Captisol solution; format: physicochemical; conditions: 20% Captisol solution, aqueous with cosolvent or surfactant or cyclodextrin, 25° C., read-out: solubility limit
Description: (20% Captisol®). Formulation is carried out under aseptic conditions. Sterility is achieved by terminal filtration through a 0.22 micron filter.

HuH-7 = assay: MTT proliferation assay, HuH-7; format: cell-based, human; conditions: Homo sapiens; Liver, HuH-7, 120 h of exposure
Description: The human hepatocellular carcinoma lines HepG2 (HB-8065), SK-HEP-1 (HTB-52) and the normal human lung fibroblast line IMR-90 (CCL-186) were cultured in Minimum Essential Eagles Medium containing 2 mM L-glutamine, 2.2 g/L sodium bicarbonate, supplemented with 1 mM sodium pyruvate and 0.1 mM non-essential amino acids. The human hepatocellular carcinoma line JHH-1 (JCRB1062) was cultured in Williams E Medium (Invitrogen) containing 2.2 g/L sodium bicarbonate, supplemented with 2 mM L-glutamine. The hepatocellular carcinoma line HuH-7 (JCRB0403) was cultured in DMEM, supplemented with 2 mM L-glutamine.
as §1, §2

4405 = assay: MTT proliferation assay, 4405; format: cell-based; conditions: Melanoma, 4405, 120 h of exposure
Description: as §1, §2

R-182 = assay: MTT proliferation assay, R-182; format: cell-based; conditions: Ovarian, R-182, 120 h of exposure
Description: Tissue culture. The multidrug resistant primary epithelial ovarian cancer cell line R-182 TARA was a gift from Dr. Gil Mor (Yale University, New Haven, CT, USA). This cell line was derived by explant from ovarian tumors and cultured as previously described. All other cell lines were purchased from American Type Culture Collection (ATCC, Manassas, VA, USA) with the exception of MKN1, HuH-7, JHH-1, which were purchased from the Japanese Collection of Research Bioresources (JCRB, Osaka, Japan), and OE19 which was purchased from the European Collection of Cell Cultures (ECACC, Salisbury, UK).
as §1, §2

CALU3 = assay: MTT proliferation assay, CALU3; format: cell-based; conditions: Homo sapiens, Calu-3; NSCLC, CALU3, 120 h of exposure
Description: as §1, §2

A549 = assay: MTT proliferation assay, A549; format: cell-based; conditions: Homo sapiens; NSCLC, A549, 120 h of exposure
Description: as §1, §2

SKBR-3 = assay: MTT proliferation assay, SKBR-3; format: cell-based, human
Description: The human colorectal adenocarcinoma line HCT-116 (CCL-247) and the human breast adenocarcinoma line SK-BR-3 (HTB-30) were cultured in McCoy's 5a Medium (Invitrogen) containing 1.5 mM L-glutamine and 2.2 g/L sodium bicarbonate. The human colorectal adenocarcinoma line SW620 (CCL-227) was cultured in Leibovitz's L-15 Medium (Invitrogen) containing 2.05 mM L-glutamine.
as §1, §2

## Oc1ccc([C@H]2c3ccc(O)cc3OC[C@H]2c2ccc(O)cc2)cc1 [Compound 31, d-cis-3-(4-hydroxyphenyl)-4-(4-hydroxyphenyl)chroman-7-ol]
MM200
  IC50: 510 to 1500 nM
CP70; 120 h, Ovarian, CP70, 120 h of exposure
  IC50: 510 to 1500 nM
CP70; Table 2, Ovarian, CP70, 120 hrs of exposure
  IC50: 150 to 500 nM
MM2200
  IC50: 510 to 1500 nM
[1]
  solubility: 27.9 mg/mL (≈ 83.4 mM)
HuH-7
  IC50: 150 to 500 nM
4405
  IC50: 150 to 500 nM
R-182
  IC50: ≤ 150 nM
CALU3
  IC50: 150 to 500 nM
A549
  IC50: 510 to 1500 nM
SKBR-3; Homo sapiens, SK-BR-3, 120 h, Breast, SKBR-3, 120 h of exposure
  IC50: ≤ 150 nM
SKBR-3; Table 2, Breast, SKBR-3, 120 hrs of exposure
  IC50: ≤ 150 nM
